Data published in patent US20250270209A1 (INTERLINE THERAPEUTICS, INC., priority 2022, published 2025).

Key:
LRRK2 wild type enzyme = LRRK2 wild type enzyme (Homo sapiens, UniProt Q5S007); assay: Biochemical Assay: LRRK2 TR-FRET (LanthaScreen) kinase assay with LRRKtide substrate; settings: LRRK2 Inhibition, Table 8
Summary of the method: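 Human wild-type LRRK2 (3 nM) preincubated 15 min with compound (11-point, 3-fold, top 10 μM), then reacted 120 min at 23 °C with 400 nM LRRKtide and 25 μM ATP, pH 8.0. Stopped with EDTA; Tb-anti-pLRRKtide TR-FRET read after 30 min.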

[1] = target: T1, wild type LRRK2 overexpressed in recombinant HEK-293T cells (Homo sapiens, UniProt Q5S007); assay: pS935 LRRK2 Cell Assay (HTRF, phospho-LRRK2 Ser935); assay type: cell-based; settings: LRRK2 Inhibition, Table 8, 2 hours compound incubation
T1 construct: host or cells: HEK293T (transient transfection with pCMV-LRRK2 WT plasmid)
Summary of the method: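 HEK-293T cells transiently transfected with wild-type LRRK2 for 24 h, plated overnight, then treated 2 h at 37° C with compound (top 10 μM, 3-fold, 9 doses, duplicates, 0.2% DMSO). Lysates probed overnight at 23° C by sandwich HTRF for pSer935; 665/615 nm ratio read.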

T1 sequence (Q5S007 whole entry): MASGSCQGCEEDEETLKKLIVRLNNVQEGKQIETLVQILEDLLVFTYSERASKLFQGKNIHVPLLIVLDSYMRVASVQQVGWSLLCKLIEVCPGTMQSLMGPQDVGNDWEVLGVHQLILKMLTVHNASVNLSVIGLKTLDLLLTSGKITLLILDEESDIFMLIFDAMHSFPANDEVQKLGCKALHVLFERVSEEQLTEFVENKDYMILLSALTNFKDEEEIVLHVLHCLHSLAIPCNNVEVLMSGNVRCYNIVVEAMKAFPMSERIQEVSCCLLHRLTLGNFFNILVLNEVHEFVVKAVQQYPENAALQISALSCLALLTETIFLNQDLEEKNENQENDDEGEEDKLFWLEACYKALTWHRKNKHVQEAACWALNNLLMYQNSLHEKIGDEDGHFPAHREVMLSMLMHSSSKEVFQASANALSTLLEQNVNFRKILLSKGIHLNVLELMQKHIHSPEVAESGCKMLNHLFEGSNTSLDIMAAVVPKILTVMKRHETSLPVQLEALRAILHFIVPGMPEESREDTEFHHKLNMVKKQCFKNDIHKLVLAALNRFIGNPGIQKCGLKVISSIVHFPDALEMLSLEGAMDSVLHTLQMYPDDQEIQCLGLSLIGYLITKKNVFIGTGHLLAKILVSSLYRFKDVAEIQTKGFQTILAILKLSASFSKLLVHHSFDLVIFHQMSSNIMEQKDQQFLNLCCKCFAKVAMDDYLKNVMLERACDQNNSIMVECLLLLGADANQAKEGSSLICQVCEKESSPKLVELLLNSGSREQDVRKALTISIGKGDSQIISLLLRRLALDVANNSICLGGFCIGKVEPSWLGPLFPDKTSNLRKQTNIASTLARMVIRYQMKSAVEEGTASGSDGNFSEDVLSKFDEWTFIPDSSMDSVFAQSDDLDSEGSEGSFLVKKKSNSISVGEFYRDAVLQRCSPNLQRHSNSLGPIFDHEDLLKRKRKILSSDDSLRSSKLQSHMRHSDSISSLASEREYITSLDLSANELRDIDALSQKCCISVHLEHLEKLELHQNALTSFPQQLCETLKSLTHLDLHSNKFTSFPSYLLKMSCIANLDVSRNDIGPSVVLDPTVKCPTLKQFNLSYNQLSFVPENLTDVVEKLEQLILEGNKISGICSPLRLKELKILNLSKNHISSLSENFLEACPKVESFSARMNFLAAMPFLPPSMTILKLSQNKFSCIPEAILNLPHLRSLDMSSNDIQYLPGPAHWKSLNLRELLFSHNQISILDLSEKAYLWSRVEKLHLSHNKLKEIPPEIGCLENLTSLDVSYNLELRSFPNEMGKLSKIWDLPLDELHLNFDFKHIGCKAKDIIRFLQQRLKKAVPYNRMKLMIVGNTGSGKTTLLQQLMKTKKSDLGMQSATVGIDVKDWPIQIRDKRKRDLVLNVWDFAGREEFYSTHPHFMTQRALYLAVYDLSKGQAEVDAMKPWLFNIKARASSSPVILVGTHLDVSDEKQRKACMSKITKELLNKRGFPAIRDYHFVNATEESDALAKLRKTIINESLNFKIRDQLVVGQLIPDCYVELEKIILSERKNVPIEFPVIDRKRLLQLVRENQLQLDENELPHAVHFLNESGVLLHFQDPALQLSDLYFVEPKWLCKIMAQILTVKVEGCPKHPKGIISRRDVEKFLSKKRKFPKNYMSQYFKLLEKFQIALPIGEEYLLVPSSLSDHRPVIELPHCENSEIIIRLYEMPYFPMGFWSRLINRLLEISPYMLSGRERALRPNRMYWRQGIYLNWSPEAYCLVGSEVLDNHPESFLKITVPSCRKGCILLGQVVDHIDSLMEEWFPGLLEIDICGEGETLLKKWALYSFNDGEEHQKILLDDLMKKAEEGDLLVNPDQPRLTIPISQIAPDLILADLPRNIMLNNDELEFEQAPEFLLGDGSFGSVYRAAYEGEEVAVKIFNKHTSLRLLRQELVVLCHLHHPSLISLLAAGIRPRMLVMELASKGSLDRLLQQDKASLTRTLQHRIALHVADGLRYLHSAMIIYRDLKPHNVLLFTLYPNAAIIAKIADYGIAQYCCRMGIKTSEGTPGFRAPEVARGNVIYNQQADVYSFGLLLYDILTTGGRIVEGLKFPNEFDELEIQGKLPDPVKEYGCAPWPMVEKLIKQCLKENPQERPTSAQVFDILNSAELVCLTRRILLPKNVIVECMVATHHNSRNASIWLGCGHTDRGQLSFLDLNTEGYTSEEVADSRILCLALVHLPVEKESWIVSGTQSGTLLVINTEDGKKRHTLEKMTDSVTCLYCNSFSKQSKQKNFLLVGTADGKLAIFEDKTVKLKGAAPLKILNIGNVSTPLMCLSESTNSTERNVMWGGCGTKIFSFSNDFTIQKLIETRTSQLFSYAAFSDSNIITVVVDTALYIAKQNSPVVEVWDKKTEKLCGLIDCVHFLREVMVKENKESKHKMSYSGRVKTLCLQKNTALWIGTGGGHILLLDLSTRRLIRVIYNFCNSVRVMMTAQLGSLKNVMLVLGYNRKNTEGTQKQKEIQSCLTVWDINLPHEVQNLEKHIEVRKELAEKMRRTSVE
Chain of LRRK2 wild type enzyme (Q5S007 whole entry): as above

SMILES | IC50 (LRRK2 wild type enzyme) [nM] | IC50 [1] [nM]
C[C@@H]1C[C@H](n2c(CS(=O)(=O)C3CC3)nc3cnc4ccc(C#N)cc4c32)CCO1 [Compound 74, 2-[(cyclopropanesulfonyl)methyl]-1-[(2R,4R)-2-methyloxan-4-yl]-1H-imidazo[4,5-c]quinoline-8-carbonitrile] | 5.92 | 430
C[C@@H]1C[C@H](n2c(CC(=O)NCC3(C)CC3)nc3cnc4ccc(C#N)cc4c32)CCO1 [Compound 265, N-(1-methylcyclopropyl)methyl{3-[(2R,4R)-2-methyltetrahydro-2H-pyran-4-yl]-12-cyano-3,5,8-triazatricyclo[7.4.0.0^2,6]trideca-1,4,6,8,10,12-hexaen-4-yl}acetamide] | 0.548 | 22.4
C[C@@H]1C[C@H](n2c(CC3CN(C(=O)c4cnn(C)c4)C3)nc3cnc4ccc(C#N)cc4c32)CCO1 [Compound 60, 2-{[1-(1-methyl-1H-pyrazole-4-carbonyl)azetidin-3-yl]methyl}-1-[(2R,4R)-2-methyloxan-4-yl]-1H-imidazo[4,5-c]quinoline-8-carbonitrile] | 4.29 | 1550
Cc1cncc(NC(=O)Cc2nc3cnc4ccc(C#N)cc4c3n2[C@@H]2CCO[C@H](C)C2)c1 [Compound 269, N-(5-methyl-3-pyridyl){3-[(2R,4R)-2-methyltetrahydro-2H-pyran-4-yl]-12-cyano-3,5,8-triazatricyclo[7.4.0.0^2,6]trideca-1,4,6,8,10,12-hexaen-4-yl}acetamide] | 0.379 | 5.17
CO[C@H]1C[C@@H](NC(=O)Cc2nc3cnc4ccc(C#N)cc4c3n2[C@@H]2CCO[C@H](C)C2)C1 [Compound 301, N-[(1s,3s)-3-methoxycyclobutyl]{3-[(2R,4R)-2-methyltetrahydro-2H-pyran-4-yl]-12-cyano-3,5,8-triazatricyclo[7.4.0.0^2,6]trideca-1,4,6,8,10,12-hexaen-4-yl}acetamide] | 0.701 | 41.3
Cc1ncc(NC(=O)Cc2nc3cnc4ccc(C#N)cc4c3n2[C@@H]2CCO[C@H](C)C2)cn1 [Compound 329, N-(2-methyl-5-pyrimidinyl){3-[(2R,4R)-2-methyltetrahydro-2H-pyran-4-yl]-12-cyano-3,5,8-triazatricyclo[7.4.0.0^2,6]trideca-1(9),2(6),4,7,10,12-hexaen-4-yl}acetamide] | 0.483 | 16.5
C[C@@H]1C[C@H](n2c(CC(=O)Nc3cnc(C4CC4)nc3)nc3cnc4ccc(C#N)cc4c32)CCO1 [Compound 300, N-(2-cyclopropyl-5-pyrimidinyl){3-[(2R,4R)-2-methyltetrahydro-2H-pyran-4-yl]-12-cyano-3,5,8-triazatricyclo[7.4.0.0^2,6]trideca-1,4,6,8,10,12-hexaen-4-yl}acetamide] | 0.382 | 10.6
C[C@@H]1C[C@H](n2c(CNC(=O)OC3CC3)nc3cnc4ccc(C#N)cc4c32)CCO1 [Compound 10, cyclopropyl N-({8-cyano-1-[(2R,4R)-2-methyloxan-4-yl]-1H-imidazo[4,5-c]quinolin-2-yl}methyl)carbamate] | 1.92 | 165
C[C@@H]1C[C@H](n2c(CC(=O)Nc3ccnn3C3COC3)nc3cnc4ccc(C#N)cc4c32)CCO1 [Compound 345, N-[1-(3-oxetanyl)-5-pyrazolyl]{3-[(2R,4R)-2-methyltetrahydro-2H-pyran-4-yl]-12-cyano-3,5,8-triazatricyclo[7.4.0.0^2,6]trideca-1(9),2(6),4,7,10,12-hexaen-4-yl}acetamide] | 0.573 | 52.6
C[C@@H]1C[C@H](n2c(CS(=O)(=O)C3CC3)nc3cnc4ccc(C5CC5)cc4c32)CCO1 [Compound 62, 2-[(cyclopropanesulfonyl)methyl]-8-cyclopropyl-1-[(2R,4R)-2-methyloxan-4-yl]-1H-imidazo[4,5-c]quinoline] | 16.4 | 1250
CNC(=O)Cc1nc2cnc3ccc(C#N)cc3c2n1[C@@H]1CCO[C@H](C)C1 [Compound 82, 2-{8-cyano-1-[(2R,4R)-2-methyloxan-4-yl]-1H-imidazo[4,5-c]quinolin-2-yl}-N-methylacetamide] | 0.83 | 81.8
Cc1cc(NC(=O)Cc2nc3cnc4ccc(C#N)cc4c3n2[C@@H]2CCO[C@H](C)C2)no1 [Compound 156, 2-{8-cyano-1-[(2R,4R)-2-methyloxan-4-yl]-1H-imidazo[4,5-c]quinolin-2-yl}-N-(5-methyl-1,2-oxazol-3-yl)acetamide] | 0.529 | 6.83
C[C@@H]1C[C@H](n2c(CC(=O)Nc3ncccn3)nc3cnc4ccc(Cl)cc4c32)CCO1 [Compound 353, N-2-pyrimidinyl{3-[(2R,4R)-2-methyltetrahydro-2H-pyran-4-yl]-12-chloro-3,5,8-triazatricyclo[7.4.0.0^2,6]trideca-1(9),2(6),4,7,10,12-hexaen-4-yl}acetamide] | 0.395 | 1.84
C[C@@H]1C[C@H](n2c(CC(=O)N[C@@H]3C[C@H]3c3cccnc3)nc3cnc4ccc(C#N)cc4c32)CCO1 [Compound 348, N-[(1R,2S)-2-(3-pyridyl)cyclopropyl]{3-[(2R,4R)-2-methyltetrahydro-2H-pyran-4-yl]-12-cyano-3,5,8-triazatricyclo[7.4.0.0^2,6]trideca-1(9),2(6),4,7,10,12-hexaen-4-yl}acetamide] | 0.724 | 32.3
C[C@@H]1C[C@H](n2c(C3CC(=O)N([C@H](C)C4CC4)C3)nc3cnc4ccc(C#N)cc4c32)CCO1 (stereo partly drawn) [Compound 34, 2-{1-[(1R)-1-cyclopropylethyl]-5-oxopyrrolidin-3-yl}-1-[(2R,4R)-2-methyloxan-4-yl]-1H-imidazo[4,5-c]quinoline-8-carbonitrile] | 4.22 | 273
Cc1cncc(NC(=O)Cc2nc3cnc4ccc(C#N)cc4c3n2[C@@H]2CCO[C@H](C)C2)n1 [Compound 314, N-(6-methyl-2-pyrazinyl){3-[(2R,4R)-2-methyltetrahydro-2H-pyran-4-yl]-12-cyano-3,5,8-triazatricyclo[7.4.0.0^2,6]trideca-1(9),2(6),4,7,10,12-hexaen-4-yl}acetamide] | 0.542 | 2.36
C[C@@H]1C[C@H](n2c(CN3CCCS3(=O)=O)nc3cnc4ccc(C#N)cc4c32)CCO1 [Compound 75, 2-[(1,1-dioxo-126,2-thiazolidin-2-yl)methyl]-1-[(2R,4R)-2-methyloxan-4-yl]-1H-imidazo[4,5-c]quinoline-8-carbonitrile] | 11.1 | 590
C[C@@H]1C[C@H](n2c(CC(=O)Nc3ccc(C(F)(F)F)n(C)c3=O)nc3cnc4ccc(C#N)cc4c32)CCO1 [Compound 221, N-[1-methyl-2-oxo-6-(trifluoromethyl)-1,2-dihydro-3-pyridyl]{3-[(2R,4R)-2-methyltetrahydro-2H-pyran-4-yl]-12-cyano-3,5,8-triazatricyclo[7.4.0.0^2,6]trideca-1,4,6,8,10,12-hexaen-4-yl}acetamide] | 0.526 | 5.77
Cc1ccncc1NC(=O)Cc1nc2cnc3ccc(C#N)cc3c2n1[C@@H]1CCO[C@H](C)C1 [Compound 292, N-(4-methyl-3-pyridyl){3-[(2R,4R)-2-methyltetrahydro-2H-pyran-4-yl]-12-cyano-3,5,8-triazatricyclo[7.4.0.0^2,6]trideca-1,4,6,8,10,12-hexaen-4-yl}acetamide] | 0.473 | 8.23
C[C@@H]1C[C@H](n2c(CC(=O)NC[C@@H]3CCOC3)nc3cnc4ccc(C#N)cc4c32)CCO1 [Compound 173, 2-{8-cyano-1-[(2R,4R)-2-methyloxan-4-yl]-1H-imidazo[4,5-c]quinolin-2-yl}-N-{[(3S)-oxolan-3-yl]methyl}acetamide] | 0.413 | 38.1
C[C@@H]1C[C@H](n2c(CC(=O)NC3(C)COC3)nc3cnc4ccc(Cl)cc4c32)CCO1 [Compound 323, N-(3-methyl-3-oxetanyl){3-[(2R,4R)-2-methyltetrahydro-2H-pyran-4-yl]-12-chloro-3,5,8-triazatricyclo[7.4.0.0^2,6]trideca-1(9),2(6),4,7,10,12-hexaen-4-yl}acetamide] | 2.72 | 76.9
C[C@@H]1C[C@H](n2c(CC(=O)NC3(c4ncccn4)CC3)nc3cnc4ccc(C#N)cc4c32)CCO1 [Compound 360, N-[1-(2-pyrimidinyl)cyclopropyl]{3-[(2R,4R)-2-methyltetrahydro-2H-pyran-4-yl]-12-cyano-3,5,8-triazatricyclo[7.4.0.0^2,6]trideca-1,4,6,8,10,12-hexaen-4-yl}acetamide] | 1.24 | 104
C[C@@H]1C[C@H](n2c(CC(=O)N[C@@H]3C[C@H]3F)nc3cnc4ccc(C#N)cc4c32)CCO1 [Compound 277, N-[(1R,2R)-2-fluorocyclopropyl]{3-[(2R,4R)-2-methyltetrahydro-2H-pyran-4-yl]-12-cyano-3,5,8-triazatricyclo[7.4.0.0^2,6]trideca-1(13),2(6),4,7,9,11-hexaen-4-yl}acetamide] | 0.828 | 52.2
COCC1(CNC(=O)Cc2nc3cnc4ccc(C#N)cc4c3n2[C@@H]2CCO[C@H](C)C2)CC1 [Compound 267, N-[1-(methoxymethyl)cyclopropyl]methyl{3-[(2R,4R)-2-methyltetrahydro-2H-pyran-4-yl]-12-cyano-3,5,8-triazatricyclo[7.4.0.0^2,6]trideca-1,4,6,8,10,12-hexaen-4-yl}acetamide] | 0.419 | 7.51
C[C@@H]1C[C@H](n2c(CC(=O)NC(C)(C)c3ccccn3)nc3cnc4ccc(C#N)cc4c32)CCO1 [Compound 185, 2-{8-cyano-1-[(2R,4R)-2-methyloxan-4-yl]-1H-imidazo[4,5-c]quinolin-2-yl}-N-[2-(pyridin-2-yl)propan-2-yl]acetamide] | 0.42 | 2.56
